# From a melting point compilation (Tetko et al.; mined from patent text by program, amines drawn as free bases though some values may be those of a salt)
row,SMILES,melting point [°C]
1,COc1cc(OC)nc(NC(=O)NS(=O)(=O)C(C)c2ccccc2[N+](=O)[O-])n1 (centres undefined),168 to 170
2,CCc1nc2c(N)nc3cc(CCC(=O)N(C)C)ccc3c2n1CC1CCOCC1,219 to 220
3,CCOC(=O)/C(CCO[N+](=O)[O-])=C(\c1ccc(Cl)cc1)c1ccc(S(C)(=O)=O)cc1,127 to 128
4,O=C1NC(=O)C(Cc2ccc3c(c2)CCCN3Cc2ccccc2)S1 (centres undefined),155 to 158
5,CCCCNC(=O)C1CCNCC1,75 to 79
6,BrCc1ccc(-c2ccc3c(c2)OCO3)cc1,78 to 81
7,CN(C)CCc1cn(S(=O)(=O)c2ccccc2)c2ccc(O)cc12,185 to 188
8,COCCOCc1ccc(-c2ccc(C(=O)Nc3ccc(OC)c(N4CCN(C)CC4)c3)cc2)c(C)c1,147 to 148
9,C=CCn1c(NC=O)nc(N2CCc3ccccc3CC2)c(C#N)c1=O,> 200
10,COC(=O)c1ccc2cc(-c3ccc(OC)c(C45CC6CC(CC(C6)C4)C5)c3)ccc2c1,221 to 227
11,CC(C)c1ccc(-n2c(CC(=O)O)c(C(=O)O)c3cc(Oc4ccc(Cl)cc4)ccc32)cc1,174 to 180
12,COc1cccc(C#N)c1C,47 to 48
13,CC(=O)OC1CCC2(C)C(CCC3=C4C(=O)CC(C(C)CCC=O)C4(C)CCC32)C1 (centres undefined),162 to 164
14,Cc1cc(C(O)(c2ccccc2)c2ccccc2)on1,116 to 118
15,COC(=O)CCc1ncc2oc(C(=O)OC)c(O)c2c1C(=O)OC,117 to 118
16,CC12CC3CC(C1)CC(CC(O)C(c1cccc(Cl)c1)n1ccnc1)(C3)C2 (centres undefined),126
17,COc1ccc2c(c1)C(c1ccccc1)NC(=S)N2CC1CC1 (centres undefined),146 to 147
18,CCC1=Nc2c(C)nn(C)c2C2=NC(C)CN12 (centres undefined),153 to 155
19,COc1cccc2c1C(=O)c1c(OC)cc(CBr)cc1C2=O,176 to 178
20,CN1CC2C(C1)C2Nc1ncc2cc(-c3ccccc3Cl)c(=O)n(C3CC3)c2n1 (centres undefined),190 to 191
21,COc1cccc(C2CC(=O)N(c3ccnc(NC(=O)NCc4ccccn4)c3)C2)c1 (centres undefined),189 to 190
22,CC(=O)N[C@@H]1[C@@H](CC2CO2)CC(C(=O)O)=C[C@H]1OC(C)C (some centres undefined),156 to 157
23,COC(=O)C(CC(=O)O)Cc1ccc(OC)c(OC)c1 (centres undefined),104 to 107
24,CCOc1cc(C)ccc1C1CCN(CCCCNC(=O)c2ccc3oc(-c4ccc(Cl)cc4)cc3c2)CC1,145 to 158
25,Cc1ccc(-c2cc3c(s2)CCCC(C(=O)O)=C3)cc1,250 to 251

row,SMILES,melting point [°C]
1,COc1c(CC(C)(C)C(=O)O)n(Cc2ccc(Cl)cc2)c2ccc(O)cc12,137
2,COc1ccc2c3ccnc(C)c3n(CCCc3ccccc3)c2c1,117 to 118
3,NCC(=O)NC(Cc1ccccn1)c1ccccc1 (centres undefined),75 to 77
4,Nc1cnc2cccnc2c1Cl,188 to 190
5,CC(c1oc2ccccc2c(=O)c1-c1cccc(F)c1)n1nc(-c2cccc(OC(F)(F)F)c2)c2c(N)ncnc21 (centres undefined),155 to 157
6,CCOCc1nc2c(N)nc3cc(-c4cccc(CO)c4)cnc3c2n1CC(C)(C)O,186 to 187
7,CN(CC(=O)C(Cc1ccccc1)NC(=O)c1ccccc1)C(=O)OCc1ccccc1 (centres undefined),140 to 141
8,CCOC(=O)CC[C@H](NC(=O)c1csc(CCCc2cc3c(=O)[nH]c(N)nc3[nH]2)c1)C(=O)OCC,81 to 82
9,CCCc1nn(-c2ccc(C(F)(F)F)cn2)cc1CCCOc1cc(CCC(=O)O)n(C2CCCCC2)n1,164 to 165
10,O=c1c2cc(Cl)ccc2nc2n1CCCC2=Cc1ccccc1,121 to 123
11,NC(=O)c1ccc(-c2cnc3[nH]c(=O)n(CCC4CCOCC4)c3n2)cc1,233 to 236
12,CON(C)C(=O)CC(c1cccc(Br)c1)c1ccccc1C (centres undefined),89
13,CC1c2cc(C(C)(C)C)cc(C(C)(C)C)c2OP(Cl)Oc2c1cc(C(C)(C)C)cc2C(C)(C)C (centres undefined),194 to 198
14,O=C(O)c1ccccc1COc1ccccc1Br,175 to 177
15,O=C(O)[C@H](Cc1ccccc1)Nc1c(NC(c2ccccc2)c2ccccc2)c(=O)c1=O,187 to 188
16,CCS(=O)(=O)c1ccc(C(=O)NCc2ccc3c(c2)C(=O)N(C2(C)CCC(=O)NC2=O)C3=O)nc1 (centres undefined),145 to 147
17,COc1cc2c(cc1Br)CC(C)OC2c1ccc([N+](=O)[O-])cc1 (centres undefined),128 to 129
18,CCC1Nc2cc(C)cc(C)c2N1c1ccc(CCNC(=O)NS(=O)(=O)c2ccc(C)cc2)cc1 (centres undefined),108 to 112
19,Cc1cc(NC(=O)NN(c2ccccc2)c2cccc(C(=N)N)c2)ccc1N1CCCCC1=O,> 300
20,O=C(CCc1ccccc1)Nc1ccc(Br)cc1,149 to 151
21,CC(=O)NC1CCN(c2ccccn2)CC1,165 to 168
22,CCOC(=O)c1ccc(NC(=O)CCc2ccc3ccccc3c2)cc1,119 to 121
23,CCC(=CC(CSc1nnc(C)s1)=NO)C(C)[N+](=O)[O-] (centres undefined),75 to 76
24,Cc1cc(Oc2ncc(C(F)(F)F)cc2Cl)nn1C(=O)Nc1ccc(C(F)(F)F)cc1,164 to 167
25,O=C(O)COc1ccc(C(O)c2cccs2)c(Cl)c1Cl (centres undefined),163

row,SMILES,melting point [°C]
1,C=CCN(C)c1nc(-c2ccc(OC)cc2)nc2sc(C#N)c(C)c12,126 to 128
2,O=c1ccc(S(=O)(=O)c2cc3cc(Cl)cc(Cl)c3o2)n[nH]1,240 to 245
3,CCc1c(C)c(NC(=O)NC(C)(C)C)c(C)c2c1OCC2c1ccc(C(C)C)cc1 (centres undefined),207 to 209
4,CC(C)c1cc(Cl)cc(C(C)C)c1NC(=O)NS(=O)(=O)c1cccc(C(C)(C)O)c1,160 to 162
5,Nc1cccc(-c2nc3sccn3c2-c2ccnc(N[C@@H]3CCCN(S(=O)(=O)c4ccc(Cl)cc4)C3)n2)c1,226 to 228
6,CCC(OC)(c1cccc(O)c1)c1nccs1 (centres undefined),101 to 103
7,COCOc1ccccc1-c1cc(-c2cccc(C(=O)OC)c2)c(C#N)c(NC(=O)c2cccs2)n1,159 to 160
8,CCN(c1nc(C)cc(C(=O)c2ccc3[nH]ccc3c2)n1)c1ccc(C(C)C)cc1Br,77 to 79
9,C=CCOc1cccc2c1C(=O)N(C(C)(C#N)C(C)C)C2=O (centres undefined),54 to 58
10,CCOC(=O)NN=C(c1cccnc1)C1COCOC1,132
11,CS(=O)(=O)c1ccc(-c2[nH]nc(C(=O)CCCO)c2-c2ccc(C#N)cc2)cc1,169 to 171
12,CCc1n[nH]c2cc(-c3nn(C(C)c4oc5ccccc5c(=O)c4-c4cccc(F)c4)c4ncnc(N)c34)ccc12 (centres undefined),270 to 273
13,O=S1(=O)CCCN1CCc1ccncc1,70
14,N#Cc1ccc(C=Cc2ccccn2)cc1,98
15,O=Cc1c2ccccc2c(Cl)c2cc(Cl)ccc12,174 to 175
16,CCOC(=O)CC(NC(=O)c1ccc(C)cc1)C(=O)c1ccco1 (centres undefined),83.5 to 84.5
17,Cc1nc2c(N)c(C(=O)C3OC3c3ccsc3)ccn2c1C (centres undefined),186 to 189
18,CNc1nn(C(=O)Cl)c(=O)n1C,185
19,CCOc1ccc(C(=O)CN2CCOCC2)cc1-c1nc2c(C)cccc2c(=O)[nH]1,172 to 173
20,COC(=O)[C@@H](C)Oc1ccc(Oc2cnc3ccc(Cl)cc3n2)cc1,80
21,CC(O)=C(C(=O)OCC(Cl)(Cl)Cl)N1C(=O)C(NC(=O)COc2ccccc2)C1SSc1nc2ccccc2s1 (centres undefined),129 to 130
22,Cc1cc(C)c2ncc(C#N)c(-c3ccccc3Cl)c2c1,153 to 154
23,Nc1nonc1-c1nc2ccccc2n1CC(=O)c1ccccc1,202 to 204
24,O=C(O)C1CC1c1cc(=O)c2ccc3ccccc3c2o1 (centres undefined),286 to 288
25,CC1=C(C(=O)OCCN(C)Cc2ccccc2)C(c2ccccc2C(F)(F)F)c2c(ccnc2OCC(C)C)N1 (centres undefined),148 to 150

row,SMILES,melting point [°C]
1,COc1ccc(C2Sc3ccccc3N(CCN(C)C)C(=O)C2OC(=O)c2cccc([N+](=O)[O-])c2)cc1 (centres undefined),178 to 180
2,CSc1ccc(C[C@H](CO)NC(=O)OCc2ccccc2)cc1,115 to 117
3,O=C1C2=CC=CCC2C(O)N1CCN1CCC(c2noc3cc(F)ccc23)CC1 (centres undefined),172 to 173
4,COc1cc(C=CC=O)ccc1OC(C)=O,83 to 86
5,CC(C)(C)OC(=O)N[C@@H](CC(=O)O)C(=O)OC(C)(C)C,97 to 99
6,CCC(=O)Nc1ccc(C2=NNC(=O)C3CC23)cc1 (centres undefined),268 to 270
7,CN(c1ccc(Cl)cc1[N+](=O)[O-])S(=O)(=O)C=Cc1ccccc1,162 to 164
8,COC(=O)c1ccc(OC)c(/C=C/C(=O)N(C(C)C)C(C)C)c1,139 to 140
9,O=C(CCCCCN1CCN(c2cccc(C(F)(F)F)c2)CC1)N1Cc2ccccc2C1,100 to 105
10,O=C(O)Cc1ccc(-n2cc(Cl)cn2)cc1,176 to 178
11,C=Cc1c2c(c(C)c(C)c1N1CCN(c3ccc(OC)cc3)CC1)OC(C)(C)C2=O,147 to 148
12,CC1CCCCC1C(=O)Nc1ccc(-c2cnc(-c3ccc(NC(=O)c4ccccn4)cc3)[nH]2)cc1 (centres undefined),227 to 229
13,CCOC(=O)C(=O)OCc1ccc(OC)cc1,44 to 45
14,Nc1ccc2[nH]c(CO)cc2c1,159 to 160
15,O=C(O)Cc1c(-c2ccccc2)c2cc3c(cc2oc1=O)CCC3,216 to 218
16,O=C(O)C(=O)c1ccc(OCCOc2ccccc2F)cc1,108 to 110
17,CC(=O)OCCOCn1cc(C)c(=O)[nH]c1=O,105 to 107
18,COC(=O)c1ccccc1C(=O)c1ccc(-n2ccnc2)cc1,134 to 136
19,Cc1nn(-c2ccc(C(F)(F)F)cn2)cc1CO,157 to 158
20,C(=C\c1nc2ccccc2n1-c1ccncc1)/c1ccoc1,172
21,CC(O)CNCc1nc2cc(-c3ccccc3)nnc2c2ccccc12 (centres undefined),161 to 162
22,COc1ccc2c(Cl)nc(Cl)nc2c1OC,153 to 155
23,COc1ccc(CN(C)CC(O)COc2ccc(NC(=O)c3cccc4c(=O)c5cccc(OC)c5[nH]c34)cc2)cc1OC (centres undefined),175
24,O=C(CCC#Cc1ccccn1)Nc1ccc(Cl)cc1,110 to 111
